Columns and labels:
rat orexin 1 receptor = rat orexin 1 receptor (Rattus norvegicus, UniProt P56718); test: Rat orexin 1 receptor radioligand binding (competitive); conditions: HEK293 cells stably expressing rat orexin 1 receptor; 4 nM radioligand; averages of 2-20 runs; read-out: rOX1 Ki
Description: (§1) The in vitro affinity of the compounds of the invention for the rat/human orexin 1 and human orexin 2 receptors was determined by competitive radioligand binding using [^3H](1-(5-(2-fluoro-phenyl)-2-methyl-thiazol-4-yl)-1-((S)-2-(5-phenyl-(1,3,4)oxadiazol-2-ylmethyl)-pyrrolidin-1-yl)-methanone) (Langmead et al., 2004) and [^3H]EMPA (n-ethyl-2[96-methoxy-pyridin-3-yl)-(toluene-2-sulfonyl)-amino]-N-pyridin-3-ylmethyl acetamide), respectively (Langmead et al., 2004, British Journal of Pharmacology 141:340-346; Malherbe et al., 2004, British Journal of Pharmacology 156:1326-41).
(§2) Data are analyzed using pc-Sandy macro and graphed on Graphpad Prism 5. For analysis, each concentration point is averaged from triplicate values and the averaged values are plotted on Graphpad Prism. The IC50 was determined by applying the following equation (GraphPad Prism 5.0, San Diego) for one site competition where X=log (concentration) and Y=specific binding. Top denotes the total [^3H]— (1-(5-(2-fluoro-phenyl)-2-methyl-thiazol-4-yl)-1-((S)-2-(5-phenyl-(1,3,4)oxadiazol-2-ylmethyl)-pyrrolidin-1-yl)-methanone) binding, bottom denotes the nonspecific [^3H]— (1-(5-(2-fluoro-phenyl)-2-methyl-thiazol-4-yl)-1-((S)-2-(5-phenyl-(1,3,4)oxadiazol-2-ylmethyl)-pyrrolidin-1-yl)-methanone) binding. Graphpad Prism calculates Ki value from IC50 and the pre-determined Kd values for [^3H]— (1-(5-(2-fluoro-phenyl)-2-methyl-thiazol-4-yl)-1-((S)-2-(5-phenyl-(1,3,4)oxadiazol-2-ylmethyl)-pyrrolidin-1-yl)-methanone) and [^3H]-EMPA. The Ki for each compound is then uploaded into 3DX. Each run comprises individual compounds in triplicate. The data in Table 1 and Table 2 represent averages from between 2-20 runs
Rat and Human Orexin 1 Receptor Radioligand Binding Studies
Human Embryonic Kidney 293 cells (HEK293) stably expressing rat orexin 1 receptor (Genebank accession number NM_001525) or Chinese ovary cells (CHO) stably expressing human orexin 1 receptor (Genebank accession number […]) were grown to confluency in DMEM (Hyclone, cat # SH30022), 10% FBS, 1× Pen/Strep, 1× sodium pyruvate, 10 mM HEPES, 600 μg/mL G418 and DMEM/F12 (Gibco, Cat #11039), 10% FBS, 1× Pen/Strep, 600 μg/mL G418 media, respectively on 150 cm^2 tissue culture plates, washed with 5 mM EDTA in PBS (HyClone Dulbecco's Phosphate Buffered Saline 1× with Calcium and Magnesium, Cat # SH30264.01, hereafter referred to simply as PBS) and scraped into 50 ml tubes. After centrifugation (2K×G, 5 min at 4° C.), the supernatant was aspirated and the pellets frozen and stored at −80° C. Cells were resuspended in PBS in the presence of 1 tablet of protease inhibitor cocktail (Roche, Cat. #11836145001) per 50 mL. […] Competition binding experiments in 96 well polypropylene plates were performed using [^3H]— (1-(5-(2-fluoro-phenyl)-2-methyl-thiazol-4-yl)-1-((S)-2-(5-phenyl-(1,3,4)oxadiazol-2-ylmethyl)-pyrrolidin-1-yl)-methanone) (Moraveck Corporation, specific activity=35.3 Ci/mmol), diluted to a 10 nM concentration in PBS (4 nM final). Compounds were solubilized in 100% DMSO (Acros Organics, Cat. #61042-1000) and tested over a range of 7 concentrations (from 0.1 nM to 10 μM). The final concentration of DMSO in the reactions is equal to or less than 0.1%. Total and nonspecific binding was determined in the absence and presence of 10 μM almorexant. The total volume of each reaction is 200 μL (20 μL of diluted compounds, 80 μL of [^3H]— (1-(5-(2-fluoro-phenyl)-2-methyl-thiazol-4-yl)-1-((S)-2-(5-phenyl-(1,3,4)oxadiazol-2-ylmethyl)-pyrrolidin-1-yl)-methanone) diluted in PBS and 100 μL of the cell suspension). Reactions were run for 60 min at room temperature and terminated by filtration through GF/C filter plates (PerkinElmer, Cat. #6005174) presoaked in 0.3% polyethylenimine using the cell harvester (PerkinElmer Filtermate). The plates were washed 3 times by aspirating 30 ml PBS through the plates. Plates were dried in 55° C. oven for 60 min, scintillation fluid was added, and the radioactivity was counted on a Topcount (Packard). […]

human orexin 2 receptor = human orexin 2 receptor (Homo sapiens (Human), UniProt O43614); test: Human orexin 2 receptor radioligand binding ([3H]-EMPA competition); conditions: HEK293 stably expressing human orexin 2 receptor; 2 nM [3H]-EMPA; averages of 2-20 runs; read-out: hOX2 Ki
human orexin 2 receptor, sequence (O43614 whole entry): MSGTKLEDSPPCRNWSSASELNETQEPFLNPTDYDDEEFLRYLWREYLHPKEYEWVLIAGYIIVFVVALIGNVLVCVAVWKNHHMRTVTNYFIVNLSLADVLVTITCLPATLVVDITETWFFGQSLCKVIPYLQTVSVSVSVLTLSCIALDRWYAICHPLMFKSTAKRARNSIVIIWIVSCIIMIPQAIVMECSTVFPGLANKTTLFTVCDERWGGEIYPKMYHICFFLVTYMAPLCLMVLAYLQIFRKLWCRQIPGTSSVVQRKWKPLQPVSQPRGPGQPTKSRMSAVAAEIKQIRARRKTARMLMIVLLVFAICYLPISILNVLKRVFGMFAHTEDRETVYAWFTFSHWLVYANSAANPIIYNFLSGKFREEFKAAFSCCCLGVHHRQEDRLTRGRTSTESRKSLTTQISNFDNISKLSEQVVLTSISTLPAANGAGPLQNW
Description: as §1, §2
Human Orexin 2 Receptor Radioligand Binding Studies
HEK293 stably expressing human orexin 2 receptor (Genebank accession number NM_001526) were grown to confluency in DMEM (Hyclone, cat # SH30022), 10% FBS, 1× Pen/Strep, 1× NaPyruvate, 10 mM HEPES, 600 μg/ml G418 media on 150 cm^2 tissue culture plates, washed with 5 mM EDTA in PBS (HyClone Dulbecco's Phosphate Buffered Saline 1× with Calcium and Magnesium, Cat # SH30264.01, hereafter referred to simply as PBS) and scraped into 50 ml tubes. After centrifugation (2K×G, 5 min at 4° C.), the supernatant was aspirated and the pellets frozen and stored at −80° C. Cells were resuspended in PBS in the presence of 1 tablet of protease inhibitor cocktail (Roche, Cat. #11836145001) per 50 mL. […] Compounds were solubilized in 100% DMSO (Acros Organics, Cat. #61042-1000) and tested over a range of 7 concentration (from 0.1 nM to 10 μM). The final concentration of DMSO in the reactions is equal to or less than 0.1%. Total and nonspecific binding was determined in the absence and presence of 10 μM almorexant. The total volume of each reaction is 200 μL (20 μL of diluted compounds, 80 μL of [^3H]-EMPA diluted in PBS and 100 μL of the cell suspension). Reactions were run for 60 min at room temperature and terminated by filtration through GF/C filter plates (PerkinElmer, Cat. #6005174) presoaked in 0.3% polyethylenimine using the cell harvester (PerkinElmer Filtermate). The plates were washed 3 times by aspirating 30 ml PBS through the plates. Plates were dried in 55° C. oven for 60 min, scintillation fluid was added, and the radioactivity was counted on a Topcount (Packard).

| Ki (rat orexin 1 receptor) | Ki (human orexin 2 receptor) | SMILES |
| --- | --- | --- |
| 3720 nM | > 10000 nM | C[C@@H]1[C@H]2C[C@@H](Oc3ccc(C(F)(F)F)nc3)[C@H](C2)N1C(=O)c1ncccc1-n1nccn1 (relative stereo) [Example 37, (3-(2H-1,2,3-triazol-2-yl)pyridin-2-yl)((1S*,3R*,4R*,6R*)-3-methyl-6-((6-(trifluoromethyl)pyridin-3-yl)oxy)-2-azabicyclo[2.2.1]heptan-2-yl)methanone] |
| 544 nM | > 10000 nM | Cc1ccc(-n2nccn2)c(C(=O)N2[C@H](C)[C@H]3C[C@@H](Oc4ccc(C(F)(F)F)nc4)[C@@H]2C3)n1 (relative stereo) [Example 40, (6-methyl-3-(2H-1,2,3-triazol-2-yl)pyridin-2-yl)((1S*,3R*,4R*,6R*)-3-methyl-6-((6-(trifluoromethyl)pyridin-3-yl)oxy)-2-azabicyclo[2.2.1]heptan-2-yl)methanone] |
| 300 nM | > 10000 nM | C[C@@H]1[C@H]2C[C@@H](Oc3ccc(C(F)(F)F)nc3)[C@H](C2)N1C(=O)c1ccccc1-n1nccn1 (relative stereo) [Example 41, (2-(2H-1,2,3-triazol-2-yl)phenyl)((1S*,3R*,4R*,6R*)-3-methyl-6-((6-(trifluoromethyl)pyridin-3-yl)oxy)-2-azabicyclo[2.2.1]heptan-2-yl)methanone] |
| 746 nM | – | CC1C2CC(Oc3ccc(C(F)(F)F)cn3)C(C2)N1C(=O)c1ccccc1-c1ncc(F)cn1 (single isomer, unassigned) [Example 19A, (2-(5-fluoropyrimidin-2-yl)phenyl)((1R*,3S*,4S*,6S*)-3-methyl-6-((5-(trifluoromethyl)pyridin-2-yl)oxy)-2-azabicyclo[2.2.1]heptan-2-yl)methanone] |
| – | 259 nM | CC1C2CC(Nc3cnc(C(F)(F)F)cn3)C(C2)N1C(=O)c1ccccc1-n1nccn1 (single isomer, unassigned) [Example 68B, (2-(2H-1,2,3-triazol-2-yl)phenyl)((1S*,3R*,4S*,6R*)-3-methyl-6-((5-(trifluoromethyl)pyrazin-2-yl)amino)-2-azabicyclo[2.2.1]heptan-2-yl)methanone] |
| – | 345 nM | Cc1ccc(-n2nccn2)c(C(=O)N2C(C)C3CC(Nc4cnc(C(F)(F)F)cn4)C2C3)n1 (single isomer, unassigned) [Example 69, (R/S)-(6-methyl-3-(2H-1,2,3-triazol-2-yl)pyridin-2-yl)(3-methyl-6-((5-(trifluoromethyl)pyrazin-2-yl)amino)-2-azabicyclo[2.2.1]heptan-2-yl)methanone] |
| – | > 10000 nM | Cc1ccc(-n2nccn2)c(C(=O)N2C(C)C3CC(Nc4cnc(C(F)(F)F)cn4)C2C3)n1 (single isomer, unassigned) [Example 69A, (6-methyl-3-(2H-1,2,3-triazol-2-yl)pyridin-2-yl)((1R*,3S*,4R*,6S*)-3-methyl-6-((5-(trifluoromethyl)pyrazin-2-yl)amino)-2-azabicyclo[2.2.1]heptan-2-yl)methanone] |
| – | 236 nM | Cc1ccc(-n2nccn2)c(C(=O)N2C(C)C3CC(Nc4cnc(C(F)(F)F)cn4)C2C3)n1 (single isomer, unassigned) [Example 69B, (6-methyl-3-(2H-1,2,3-triazol-2-yl)pyridin-2-yl)((1S*,3R*,4S*,6R*)-3-methyl-6-((5-(trifluoromethyl)pyrazin-2-yl)amino)-2-azabicyclo[2.2.1]heptan-2-yl)methanone] |
| 845 nM | > 10000 nM | C[C@@H]1[C@H]2C[C@@H](Oc3ccc(C(F)(F)F)cn3)[C@H](C2)N1C(=O)c1cccc(-c2ccc(F)cc2)c1 [Example 36, (4′-fluoro-[1,1′-biphenyl]-3-yl)((1S,3R,4R,6R)-3-methyl-6-((5-(trifluoromethyl)pyridin-2-yl)oxy)-2-azabicyclo[2.2.1]heptan-2-yl)methanone] |
| 5 nM | 565 nM | [2H]C([2H])([2H])[C@]1([2H])[C@H]2C[C@@H](Oc3ccc(C(F)(F)F)cn3)[C@H](C2)N1C(=O)c1cccc(F)c1-n1nccn1 [Example 164, [(1R,2R,4S,5R)-2-deuterio-2-(trideuteriomethyl)-5-[[5-(trifluoromethyl)-2-pyridyl]oxy]-3-azabicyclo[2.2.1]heptan-3-yl]-[3-fluoro-2-(triazol-2-yl)phenyl]methanone] |
| – | 1100 nM | [2H]C([2H])([2H])[C@]1([2H])[C@H]2C[C@@H](Oc3ccc(C(F)(F)F)cn3)[C@H](C2)N1C(=O)c1ncc(C)cc1-n1nccn1 [Example 166, [(1R,2R,4S,5R)-2-deuterio-2-(trideuteriomethyl)-5-[[5-(trifluoromethyl)-2-pyridyl]oxy]-3-azabicyclo[2.2.1]heptan-3-yl]-[5-methyl-3-(triazol-2-yl)-2-pyridyl]methanone] |
| – | 767 nM | [2H]C([2H])([2H])[C@]1([2H])[C@H]2C[C@@H](Oc3ccc(C(F)(F)F)cn3)[C@H](C2)N1C(=O)c1cc(F)ccc1-c1ncccn1 [Example 167, [(1R,2R,4S,5R)-2-deuterio-2-(trideuteriomethyl)-5-[[5-(trifluoromethyl)-2-pyridyl]oxy]-3-azabicyclo[2.2.1]heptan-3-yl]-(5-fluoro-2-pyrimidin-2-yl-phenyl)methanone] |
| – | 1200 nM | [2H]C1([2H])[C@H]2C[C@@H]([C@@H]1Oc1ccc(C(F)(F)F)cn1)N(C(=O)c1ncc(C)cc1-n1nccn1)[C@@H]2C [Example 200, [(1R,3R,4S,6R)-2,2-dideuterio-6-methyl-3-[[5-(trifluoromethyl)-2-pyridyl]oxy]-5-azabicyclo[2.2.1]heptan-5-yl]-[5-methyl-3-(triazol-2-yl)-2-pyridyl]methanone] |

From patent publication US9611262B2, “Substituted 2-azabicycles and their use as orexin receptor modulators” (JANSSEN PHARMACEUTICA NV, priority 2014, dated 2017)
